Reference: patent US11274100B2, “EP300/CREBBP inhibitor” (Daiichi Sankyo Company, Limited, priority 2017, dated 2022)

What was measured:
EP300 = EP300 (Homo sapiens, UniProt Q09472); assay: Histone acetyltransferase inhibitory activity against EP300 (Test Example 1); assay type: biochemical; conditions: 50 ng/mL EP300, 2 μM Acetyl-CoA, 100 nM Histone H4(1-25)-GSGSK (Biotin), 28° C. for 1 hour
Outline: (§1)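 Enzyme (50 ng/mL EP300 or 125 ng/mL CREBBP) incubated 1 h at 28° C with 2 μM acetyl-CoA, 100 nM biotinylated histone H4(1-25) peptide and 10 to 0.0006 μM compound in pH 8.0 Tris buffer with 330 nM trichostatin A, 1% DMSO. Reaction stopped with Lys-CoA; acetylation read by TR-FRET (Eu-anti pan-Ac/Sta-ULight) after overnight room-temperature incubation.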

CREBBP = CREBBP (Homo sapiens, UniProt Q92793); assay: Histone acetyltransferase inhibitory activity against CREBBP (Test Example 1); assay type: biochemical; conditions: 125 ng/mL CREBBP, 2 μM Acetyl-CoA, 100 nM Histone H4(1-25)-GSGSK (Biotin), 28° C. for 1 hour
Outline: as §1

LK2 cells [1] = assay: Antitumor activity in LK2 cell subcutaneous transplant model (Test Example 4); assay type: in vivo, female BALB/c-nu/nu mice; conditions: test end day
Source text: [Test Example 4] Evaluation of Antitumor Activity in LK2 Cell Subcutaneous Transplant Model
LK2 cells were transplanted at a rate of 2×10^6 cells/head subcutaneously into a right abdominal site of each of female BALB/c-nu/nu mice, and 7 days after, the mice were grouped into groups each consisting of 5 mice based on an estimated tumor volume (longer diameter×shorter diameter×shorter diameter/2) and the weight. The LK2 cells were purchased from Human Science Research Resources Bank. […] The estimated tumor volume of each individual was measured from the day of grouping until 18 days after the transplantation (test end day).
(§2) The antitumor activity in LK2 cell subcutaneous transplant model of Test Example 4, the antitumor activity in TE-8 cell subcutaneous transplant model of Test Example 5, the antitumor activity in KARPASS-422 cell subcutaneous transplant model of Test Example 6, the antitumor activity in NMC10-15 cell subcutaneous transplant model of Test Example 7, and the antitumor activity in VCaP cell subcutaneous transplant model of Test Example 8 were respectively calculated on the end dates of the tests in accordance with the following equation: Tumor Growth Inhibition Rate %=(1−TVCt/TVCc)×100 TVC=(individual tumor volume on test end day)−(individual tumor volume on grouping day)
TVCt: average of TVC values of administration group […]

TE-8 cells [2] = assay: Antitumor activity in TE-8 cell subcutaneous transplant model (Test Example 5); assay type: in vivo, female BALB/c-nu/nu mice; conditions: TE-8 subcutaneous transplant model, dose 6 mg/kg/day, test end day
Source text: [Test Example 5] Evaluation of Antitumor Activity in TE-8 Cell Subcutaneous Transplant Model
TE-8 cells were transplanted at a rate of 1×10^7 cells/head subcutaneously into a right abdominal site of each of female BALB/c-nu/nu mice, and 9 days after (Example 73) or 10 days after (Examples 35 and 84), the mice were grouped into groups each consisting of 5 mice based on an estimated tumor volume (longer diameter×shorter diameter×shorter diameter/2) and the weight. The TE-8 cells were purchased from Riken Cell Bank. The female BALB/c-nu/nu mice were purchased from Charles River Laboratories Japan, Inc.
(§3) From the day of grouping, the compound of Example 73 at a dose set to 2 mg/kg/day was orally administered in accordance with a schedule of twice a day continuously for 9 days (BID x 9). The estimated tumor volume of each individual was measured from the day of grouping until 18 days after the transplantation (test end day).
as §3, with “Besides, from” for “From”, “[…]” for “73”, “11” for “9”, “11).” for “9).”, “21” for “18”
as §2
TVCt: average of TVC values of administration group
TVCc: average of TVC values of non-administration group

KARPAS-422 cells = assay: Antitumor activity in KARPAS-422 cell subcutaneous transplant model (Test Example 6); assay type: in vivo, female SCID mice; conditions: KARPAS422 subcutaneous transplant model, dose 6 mg/kg/day, test end day
Source text: [Test Example 6] Evaluation of Antitumor Activity in KARPAS-422 Cell Subcutaneous Transplant Model
KARPAS-422 cells of human diffuse large B-cell lymphoma were transplanted at a rate of 2×10^7 cells/head subcutaneously into a right abdominal site of each of female SCID mice, and 10 days after, the mice were grouped into groups each consisting of 5 mice based on an estimated tumor volume (longer diameter×shorter diameter×shorter diameter/2) and the weight. The KARPAS-422 cells were purchased from Deutsche Sammlung von Mikroorganismen und Zelkulturen GmbH. […] The estimated tumor volume of each individual was measured from the day of grouping until 28 days after the transplantation (test end day).
as §2, with “grouping day) […]” for “grouping day)”

H3K27Ac = assay: Intracellular H3K27Ac inhibitory activity in LK2 cells (Test Example 2); assay type: cell-based; conditions: Homo sapiens, LK-2, cultured with compound for 3 hours, read-out: Test Example 2 H3K27Ac Inhibition (LK2) IC50
Outline: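 Human squamous lung cancer LK2 cells (40000/well) cultured overnight at 37 °C, 5% CO2 before treatment. After paraformaldehyde fixation, peroxide quench and blocking, H3K27 acetylation detected with anti-acetyl-H3K27 rabbit mAb (4 °C overnight) and HRP secondary; chemiluminescent read-out.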

LK2 cells [3] = assay: Cell growth inhibitory activity, LK2 cells (Test Example 3); assay type: cell-based; conditions: Homo sapiens, LK-2, 72 h, cultured for 3 days, CellTiter-Glo
Outline: (§4)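 LK2 and TE-8 […] cells in RPMI 1640 with 10% FBS exposed to 10-point 4-fold dilutions (10 mM to 38 nM, stock series) for 3 days. ATP luminescence (CellTiter-Glo 2.0) at day 0 and day 3 gave survival as (T3−C0)/(C3−C0)×100; GI50 from semilog plot.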

TE-8 cells [4] = assay: Cell growth inhibitory activity, TE-8 cells (Test Example 3); assay type: cell-based; conditions: Homo sapiens, 72 h, cultured for 3 days, CellTiter-Glo
Outline: as §4

NMC10-15 cells = assay: Antitumor activity in NMC10-15 cell subcutaneous transplant model (Test Example 7); assay type: in vivo, female BALB/c-nu/nu mice; conditions: NMC10-15 subcutaneous transplant model, oral, QD×9, 15 days after transplantation
Source text: [Test Example 7] Evaluation of Antitumor Activity in NMC10-15 Cell Subcutaneous Transplant Model
NMC10-15 cells derived from human nut midline carcinoma were transplanted at a rate of 5×10^6 cells/head subcutaneously into a right abdominal site of each of female BALB/c-nu/nu mice, and 6 days after, the mice were grouped into groups each consisting of 5 mice based on an estimated tumor volume (longer diameter×shorter diameter×shorter diameter/2) and the weight. […] The estimated tumor volume of each individual was measured from the day of grouping until 15 days after the transplantation (test end day).
as §2, with “grouping day) […]” for “grouping day)”

VCaP cells = assay: Antitumor activity in VCaP cell subcutaneous transplant model (Test Example 8); assay type: in vivo, male NSG mice; conditions: oral
Source text: [Test Example 8] Evaluation of Antitumor Activity in VCaP Cell Subcutaneous Transplant Model
VCaP cells derived from human prostate cancer were transplanted at a rate of 1×10^7 cells/head subcutaneously into a right abdominal site of each of male NSG mice, and 8 days after, the mice were grouped into groups each consisting of 5 mice based on an estimated tumor volume (longer diameter×shorter diameter×shorter diameter/2) and the weight. The VCaP cells were purchased from American Type Culture Collection. […] The estimated tumor volume of each individual was measured from the day of grouping until 24 days after the transplantation (test end day).
as §2, with “grouping day) […]” for “grouping day)”

Chain of CREBBP (Q92793 whole entry): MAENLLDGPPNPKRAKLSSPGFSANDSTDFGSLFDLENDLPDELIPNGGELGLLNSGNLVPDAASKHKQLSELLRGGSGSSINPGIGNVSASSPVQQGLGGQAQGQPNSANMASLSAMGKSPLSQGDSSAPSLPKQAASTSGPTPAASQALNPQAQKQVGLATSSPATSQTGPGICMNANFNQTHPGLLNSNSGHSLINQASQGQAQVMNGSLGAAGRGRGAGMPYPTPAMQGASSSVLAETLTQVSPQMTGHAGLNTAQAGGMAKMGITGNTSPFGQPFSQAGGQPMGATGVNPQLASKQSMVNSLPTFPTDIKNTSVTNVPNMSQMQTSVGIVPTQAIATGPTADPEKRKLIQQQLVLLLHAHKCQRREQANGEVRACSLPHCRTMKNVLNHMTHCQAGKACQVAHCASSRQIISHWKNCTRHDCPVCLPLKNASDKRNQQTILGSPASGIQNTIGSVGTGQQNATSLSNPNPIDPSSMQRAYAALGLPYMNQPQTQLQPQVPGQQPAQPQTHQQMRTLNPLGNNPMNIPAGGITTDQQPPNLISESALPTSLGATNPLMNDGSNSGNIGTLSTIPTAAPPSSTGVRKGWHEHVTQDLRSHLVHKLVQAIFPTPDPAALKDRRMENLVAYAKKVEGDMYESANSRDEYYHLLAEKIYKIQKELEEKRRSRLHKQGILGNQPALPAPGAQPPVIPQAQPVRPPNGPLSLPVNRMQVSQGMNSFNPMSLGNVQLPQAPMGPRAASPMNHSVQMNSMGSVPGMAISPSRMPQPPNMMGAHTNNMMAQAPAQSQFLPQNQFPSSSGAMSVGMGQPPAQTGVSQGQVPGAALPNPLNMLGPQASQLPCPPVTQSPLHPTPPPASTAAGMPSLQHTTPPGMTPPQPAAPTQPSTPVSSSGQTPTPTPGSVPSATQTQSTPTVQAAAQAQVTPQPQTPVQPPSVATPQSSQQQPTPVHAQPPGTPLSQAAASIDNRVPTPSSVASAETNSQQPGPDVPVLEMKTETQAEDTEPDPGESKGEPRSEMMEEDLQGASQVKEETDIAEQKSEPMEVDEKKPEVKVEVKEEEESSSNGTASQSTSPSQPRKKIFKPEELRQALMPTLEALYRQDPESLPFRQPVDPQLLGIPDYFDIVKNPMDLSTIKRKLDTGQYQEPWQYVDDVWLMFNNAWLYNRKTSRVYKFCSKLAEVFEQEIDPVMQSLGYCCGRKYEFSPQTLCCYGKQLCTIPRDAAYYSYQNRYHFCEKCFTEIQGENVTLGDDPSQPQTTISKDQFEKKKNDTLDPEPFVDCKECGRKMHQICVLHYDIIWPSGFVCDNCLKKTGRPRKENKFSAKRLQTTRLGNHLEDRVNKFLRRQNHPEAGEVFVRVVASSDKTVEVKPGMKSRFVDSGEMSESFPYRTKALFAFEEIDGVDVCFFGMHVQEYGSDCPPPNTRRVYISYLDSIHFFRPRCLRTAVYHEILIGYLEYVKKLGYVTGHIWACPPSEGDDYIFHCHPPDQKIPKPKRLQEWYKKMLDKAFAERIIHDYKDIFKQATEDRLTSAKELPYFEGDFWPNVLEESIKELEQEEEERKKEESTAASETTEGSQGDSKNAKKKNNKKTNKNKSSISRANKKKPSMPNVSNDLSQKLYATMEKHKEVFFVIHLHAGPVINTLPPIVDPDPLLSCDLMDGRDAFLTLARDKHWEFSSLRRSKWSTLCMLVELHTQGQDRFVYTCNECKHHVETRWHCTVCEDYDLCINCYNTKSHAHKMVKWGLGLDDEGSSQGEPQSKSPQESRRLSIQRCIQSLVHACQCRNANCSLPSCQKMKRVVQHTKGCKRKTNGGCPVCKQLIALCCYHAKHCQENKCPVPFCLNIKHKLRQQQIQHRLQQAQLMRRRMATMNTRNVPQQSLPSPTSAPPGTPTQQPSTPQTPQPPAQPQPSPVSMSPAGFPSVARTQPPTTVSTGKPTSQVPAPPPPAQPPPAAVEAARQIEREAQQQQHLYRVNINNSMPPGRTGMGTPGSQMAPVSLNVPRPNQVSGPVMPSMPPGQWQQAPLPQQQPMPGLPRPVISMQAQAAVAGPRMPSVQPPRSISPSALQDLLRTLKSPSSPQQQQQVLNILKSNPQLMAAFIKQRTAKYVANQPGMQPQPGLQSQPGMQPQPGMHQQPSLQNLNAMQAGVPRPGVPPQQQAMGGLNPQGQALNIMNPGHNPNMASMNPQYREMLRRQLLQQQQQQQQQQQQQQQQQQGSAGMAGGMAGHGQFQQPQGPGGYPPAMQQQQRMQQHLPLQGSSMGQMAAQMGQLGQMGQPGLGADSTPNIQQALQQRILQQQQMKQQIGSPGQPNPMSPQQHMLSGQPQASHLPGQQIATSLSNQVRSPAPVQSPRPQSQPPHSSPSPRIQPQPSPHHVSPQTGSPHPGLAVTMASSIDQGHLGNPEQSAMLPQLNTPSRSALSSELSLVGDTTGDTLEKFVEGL
Chain of EP300 (Q09472 whole entry): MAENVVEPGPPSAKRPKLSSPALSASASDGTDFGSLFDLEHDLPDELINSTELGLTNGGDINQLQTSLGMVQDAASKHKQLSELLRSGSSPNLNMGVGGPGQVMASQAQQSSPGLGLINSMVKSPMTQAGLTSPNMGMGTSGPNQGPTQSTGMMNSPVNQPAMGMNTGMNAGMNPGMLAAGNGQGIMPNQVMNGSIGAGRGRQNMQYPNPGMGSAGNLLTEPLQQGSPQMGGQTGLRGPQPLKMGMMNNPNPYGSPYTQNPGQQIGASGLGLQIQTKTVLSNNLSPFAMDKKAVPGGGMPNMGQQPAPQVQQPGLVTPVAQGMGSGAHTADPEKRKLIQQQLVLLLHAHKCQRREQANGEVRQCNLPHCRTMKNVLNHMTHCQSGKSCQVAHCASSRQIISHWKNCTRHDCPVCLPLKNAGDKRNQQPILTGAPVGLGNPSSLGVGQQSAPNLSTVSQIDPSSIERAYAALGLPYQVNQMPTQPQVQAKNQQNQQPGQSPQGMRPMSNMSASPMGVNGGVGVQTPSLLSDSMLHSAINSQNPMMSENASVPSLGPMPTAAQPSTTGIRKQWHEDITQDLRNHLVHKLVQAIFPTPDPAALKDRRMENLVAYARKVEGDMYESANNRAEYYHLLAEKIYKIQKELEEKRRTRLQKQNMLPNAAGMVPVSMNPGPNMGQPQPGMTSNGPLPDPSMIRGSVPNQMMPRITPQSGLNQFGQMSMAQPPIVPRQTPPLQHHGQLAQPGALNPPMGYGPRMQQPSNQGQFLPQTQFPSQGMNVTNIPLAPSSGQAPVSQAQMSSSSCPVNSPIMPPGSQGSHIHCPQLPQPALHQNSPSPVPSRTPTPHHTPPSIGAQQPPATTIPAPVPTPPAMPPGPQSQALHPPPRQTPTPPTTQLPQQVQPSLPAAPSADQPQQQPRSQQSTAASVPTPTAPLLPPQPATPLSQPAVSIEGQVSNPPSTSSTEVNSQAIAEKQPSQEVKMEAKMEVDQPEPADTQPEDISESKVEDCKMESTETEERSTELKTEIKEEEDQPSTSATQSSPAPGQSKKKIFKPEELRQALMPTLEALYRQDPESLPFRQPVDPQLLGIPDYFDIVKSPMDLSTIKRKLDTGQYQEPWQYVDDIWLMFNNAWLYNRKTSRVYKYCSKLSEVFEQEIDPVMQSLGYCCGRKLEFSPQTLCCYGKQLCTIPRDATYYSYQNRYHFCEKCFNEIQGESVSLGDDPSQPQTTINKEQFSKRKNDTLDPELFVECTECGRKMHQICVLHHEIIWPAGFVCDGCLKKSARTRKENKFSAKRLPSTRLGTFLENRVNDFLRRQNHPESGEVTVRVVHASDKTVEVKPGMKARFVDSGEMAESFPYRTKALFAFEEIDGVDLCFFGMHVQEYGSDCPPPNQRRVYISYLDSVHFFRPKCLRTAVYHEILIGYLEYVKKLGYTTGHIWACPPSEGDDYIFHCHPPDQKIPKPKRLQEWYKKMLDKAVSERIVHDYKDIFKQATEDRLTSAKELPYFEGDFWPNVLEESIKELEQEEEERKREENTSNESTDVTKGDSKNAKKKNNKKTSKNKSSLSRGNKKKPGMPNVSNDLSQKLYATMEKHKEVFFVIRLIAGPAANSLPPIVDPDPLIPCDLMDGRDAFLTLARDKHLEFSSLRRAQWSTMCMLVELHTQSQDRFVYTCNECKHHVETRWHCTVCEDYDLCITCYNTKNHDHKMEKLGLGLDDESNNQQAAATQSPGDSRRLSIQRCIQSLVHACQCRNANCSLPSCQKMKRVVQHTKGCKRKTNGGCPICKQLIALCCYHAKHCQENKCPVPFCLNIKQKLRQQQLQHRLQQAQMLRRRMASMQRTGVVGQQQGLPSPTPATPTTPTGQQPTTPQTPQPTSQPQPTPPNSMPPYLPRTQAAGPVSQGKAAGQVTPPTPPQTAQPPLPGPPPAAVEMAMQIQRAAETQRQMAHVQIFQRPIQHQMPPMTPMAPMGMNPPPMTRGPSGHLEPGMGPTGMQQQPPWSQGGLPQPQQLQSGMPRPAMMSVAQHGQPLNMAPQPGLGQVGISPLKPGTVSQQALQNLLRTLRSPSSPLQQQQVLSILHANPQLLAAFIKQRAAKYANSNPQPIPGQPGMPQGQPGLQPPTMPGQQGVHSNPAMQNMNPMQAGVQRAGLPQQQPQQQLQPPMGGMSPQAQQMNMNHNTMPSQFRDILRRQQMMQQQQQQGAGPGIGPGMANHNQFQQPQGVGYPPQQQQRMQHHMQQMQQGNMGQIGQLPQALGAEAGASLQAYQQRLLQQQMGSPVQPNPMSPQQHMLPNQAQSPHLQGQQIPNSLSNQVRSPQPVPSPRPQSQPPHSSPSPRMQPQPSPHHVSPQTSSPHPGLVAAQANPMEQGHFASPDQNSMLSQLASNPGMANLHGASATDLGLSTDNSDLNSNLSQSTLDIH

Compound: COc1ccc(C2(C(=O)N3C[C@H](F)C[C@@H]3C(=O)Nc3ccc4[nH]ncc4n3)CCCCC2)cc1 [Example 35, (4R)-4-Fluoro-1-{[1-(4-methoxyphenyl)cyclohexyl]carbonyl}-N-1H-pyrazolo[4,3-b]pyridin-5-yl-D-prolinamide]
- IC50 (EP300): 24 nM
- IC50 (CREBBP): 10 nM
- Tumor Growth Inhibition Rate (LK2 cells [1]; dose 12.5 mg/kg/day): 44%
- Tumor Growth Inhibition Rate (TE-8 cells [2]): 51%
- Tumor Growth Inhibition Rate (KARPAS-422 cells): 66%

Compound: COc1ccc(C2(C(=O)N3C[C@H](F)C[C@@H]3C(=O)Nc3ccc4[nH]ncc4n3)CCCCC2)cc1F [Example 37, (4R)-4-Fluoro-1-{[1-(3-fluoro-4-methoxyphenyl)cyclohexyl]carbonyl}-N-1H-pyrazolo[4,3-b]pyridin-5-yl-D-prolinamide]
- IC50 (EP300): 14 nM
- IC50 (CREBBP): 18 nM
- IC50 (H3K27Ac): 16 nM
- GI50 (LK2 cells [3]): 85.9 nM
- GI50 (TE-8 cells [4]): 113 nM
- Tumor Growth Inhibition Rate (LK2 cells [1]; dose 6.25 mg/kg/day): 42%

Compound: COc1ccc(C2(C(=O)N3C[C@H](F)C[C@@H]3C(=O)Nc3ccc4[nH]ncc4n3)CCC(F)(F)CC2)cc1 [Example 60, (4R)-1-{[4,4-Difluoro-1-(4-methoxyphenyl)cyclohexyl]carbonyl}-4-fluoro-N-1H-pyrazolo[4,3-b]pyridin-5-yl-D-prolinamide]
- IC50 (EP300): 28 nM
- IC50 (CREBBP): 67 nM
- IC50 (H3K27Ac): 54 nM
- GI50 (LK2 cells [3]): 211 nM
- GI50 (TE-8 cells [4]): 311 nM
- Tumor Growth Inhibition Rate (NMC10-15 cells; dose 3 mg/kg/day): 99%
- Tumor Growth Inhibition Rate (VCaP cells; dose 6 mg/kg/day, QD×16, 24 days after transplantation): 89%

Compound: O=C(Nc1ccc2[nH]ncc2n1)[C@H]1C[C@@H](F)CN1C(=O)C1(c2ccc(OC(F)F)cc2)CCC(F)(F)CC1 [Example 84, (4R)-1-({1-[4-(Difluoromethoxy)phenyl]-4,4-difluorocyclohexyl}carbonyl)-4-fluoro-N-1H-pyrazolo[4,3-b]pyridin-5-yl-D-prolinamide]
- IC50 (EP300): 26 nM
- IC50 (CREBBP): 39 nM
- IC50 (H3K27Ac): 22 nM
- GI50 (LK2 cells [3]): 97.2 nM
- GI50 (TE-8 cells [4]): 152 nM
- Tumor Growth Inhibition Rate (NMC10-15 cells; dose 0.3 mg/kg/day): 66%
- Tumor Growth Inhibition Rate (VCaP cells; dose 10 mg/kg/day, QOD×8, 24 days after transplantation): 77%
